Positions of bridges follow the written chain, without caps; N, C: chain ends. Non-standard residues stand in square brackets, D forms with d. Residues, ends and D or L forms follow the SMILES beside them. *: point of attachment. 5FAM = O=C1OC2(c3ccc(O)cc3Oc3cc(O)ccc32)c2ccc(C(=O)*)cc21; βAla = NCCC(=O)O
Key:
[1] = test system: detergent-solubilized IF or OF TmrA^EQB; assay: CP^F anisotropy with IF or OF TmrA^EQB under nucleotide conditions; type: binding, Thermus thermophilus; conditions: for Binding under nucleotide conditions: absence and presence of ATP and ADP
Text: ABC transport complexes such as TmrAB run through multiple conformational states along the ATP hydrolysis cycle to drive unidirectional substrate transport ([Hofmann et al., 2019]; [Stefan et al., 2020]). Within the substrate translocation cycle, two major conformers, inward-facing (IF) and outward-facing (OF), were identified. To investigate whether CPs favor one of these conformers, we probed the binding of CP^Fs by fluorescence polarization analysis. […] In the latter case, the interaction studies were performed immediately after the IF-to-OF switch by incubation with ATP for 5 min at 45°C. To exclude an OF-to-IF return (τ1/2 of 25 min) ([Stefan et al., 2020]), the fluorescence anisotropy was recorded only within the first minute of incubation.
Figure 5. […] (A, B) CP6^F (A) or CP13^F (B, 50 nM each) were incubated with increasing concentrations of detergent-solubilized inward-facing TmrAB (in the absence of Mg-ATP) or outward-facing TmrA^EQB, which was trapped with Mg-ATP (1 mM) for 5 min at 45°C as described ([Hofmann et al., 2019]; [Stefan et al., 2020]). Immediately after, the fluorescence anisotropy was assayed at λex/em = 485/520 nm. The difference in fluorescence polarization was normalized to free and fully bound CP^F. Data were fitted by a one-site binding model. […] TmrAB (2 µM each) were mixed with CP^Fs (4 µM), ATP (1 mM, traced with [α^32P]-ATP), and MgCl2 (5 mM) for 5 min at 4°C or 45°C. Cold ATP (10 mM) was added, and freely exchangeable nucleotides were removed by rapid gel filtration. Occluded nucleotides were analyzed by thin layer chromatography and autoradiography. Representative radiograms for independent triplicates are shown. (D) Stably occluded nucleotides, [α^32P]-ATP and [α^32P]-ADP, were quantified by autoradiography. Data were normalized to the vanadate-trapped state. In (A, B, D), mean values ± SD (n = 3) are shown. Figure 5—source data 1. Source Data for Figure 5. Figure 5—figure supplement 1. […] (A) CP^Fs (50 nM each) were incubated with increasing concentrations of detergent-solubilized IF TmrAB in the inward-facing (IF) conformation (absence of Mg-ATP) or TmrA^EQB populated in the outward-facing (OF) conformation, which was trapped in the OF conformation by Mg-ATP (1 mM) after 5 min incubation at 45°C. The difference in fluorescence polarization was normalized to unbound (0%) and 100% bound CP^F. Data were fitted by a one-site binding model. Fluorescence anisotropy was recorded at λex/em = 485/520 nm. […] TmrA^EQB (2 µM) were incubated in the absence and presence of CP^Fs (4 µM each), ATP (1 mM, traced with [α^32P]-ATP), and MgCl2 (5 mM) for 5 min at 4°C or 45°C. Cold ATP (10 mM) was added, and free nucleotides were removed by rapid gel filtration. Occluded nucleotides were analyzed by thin layer chromatography and autoradiography. Representative radiograms for independent triplicates are shown. […] Figure 5—figure supplement 1—source data 1.
To determine equilibrium binding constants, CP^Fs (50 nM) were incubated with increasing concentrations of TmrAB-containing or empty liposomes. To probe the conformational selectivity, CP^Fs (50 nM) were mixed with detergent-solubilized IF TmrAB or OF TmrA^EQB. Before, OF TmrA^EQB was nucleotide-trapped by incubation with ATP (1 mM) and MgCl2 (3 mM) in the absence of CP^Fs for 5 min at 45°C.

TmrAB = assay: Competition of C4F peptide binding by CP^Bs (fluorescence anisotropy); parameters: species or system Thermus thermophilus; conditions: C4F 50 nM + TmrAB 4 µM + competitor (CP^B 6 µM or C4^ATTO655 10 µM)
Text: To elucidate the mechanistic basis for the inhibition of ATP hydrolysis and substrate transport, we investigated the effects of CPs on substrate binding. In the first approach, fluorescent CP^Fs were used as reporters in fluorescence polarization. […] In addition, we examined the impact of CP^Bs on ATP binding to TmrAB by scintillation proximity assays (SPA) (Figure 4C). […] Taken together, CPs are high-affinity allosteric inhibitors of TmrAB that leave ATP binding and substrate interaction largely unaffected, while impairing ATP hydrolysis and substrate translocation across the membrane.
Figure 4. […] (A) CP^Fs binding TmrAB is not affected by substrate peptide binding. […] For competition, C4^ATTO655 peptide (2 µM) or R9LQK peptide (200 µM) were added. (B) Binding of C4F peptide is not affected by CP^Bs. C4F peptides (50 nM) were mixed with TmrAB (4 µM), and fluorescence anisotropy was monitored as described in (A). For competition, C4^ATTO655 (10 µM) or CP^Bs (6 µM) were added. […] TmrAB (0.2 µM) were immobilized on SPA beads and incubated with ATP (3 μM, traced with ^3H-ATP) in the presence and absence of CP^Bs (1 µM each) for 30 min on ice. ATP binding was monitored by SPA. Background values were determined after releasing TmrAB complexes from the beads by adding imidazole (200 mM). The background signal in the absence of CP^Bs was set to 0 cpm. […] As this is an equilibrium experiment, this can be rationalized by the fact that CP13 stabilizes the ATP-bound OF conformer. Figure 4—source data 1. Source data for Figure 4.
To determine equilibrium binding constants, CP^Fs (50 nM) were incubated with increasing concentrations of TmrAB-containing or empty liposomes. To probe the conformational selectivity, CP^Fs (50 nM) were mixed with detergent-solubilized IF TmrAB or OF TmrA^EQB. Before, OF TmrA^EQB was nucleotide-trapped by incubation with ATP (1 mM) and MgCl2 (3 mM) in the absence of CP^Fs for 5 min at 45°C. […] For peptide competition studies, RRYC^fluoresceinKSTEL (C4F, 50 nM) were incubated with detergent-solubilized TmrAB (4 µM), CP^Bs (6 µM), or C4^ATTO655 (10 µM). […] Fluorescence anisotropy was analyzed at λex/em of 485/520 nm using a microplate reader (CLARIOstar, BMG LABTECH). Fluorescence anisotropy was calculated using:(1) r=I||−I⊥/I||+2⋅I⊥ with I||: parallel intensity and I⊥: perpendicular intensity. Binding of CP^Fs were fitted by a one-site binding model (Langmuir 1:1) using:(2) Y=Bmax∙[L]/KD+[L] with Y: binding, Bmax: maximal binding, KD: equilibrium dissociation constant, and [L]: ligand concentration. Data represent mean ± SD from three experiments.

[2] = TmrAB, 4 °C, CP^F 50 nM, TmrA^EQB 150 nM (CP6^F), 170 nM (CP12^F), 50 nM (CP13^F), 120 nM (CP14^F)
[3] = TmrAB, 45 °C, no nucleotide, CP^F 50 nM, TmrA^EQB 50-170 nM
[4] = TmrAB, ADP, 45 °C, CP^F 50 nM, TmrA^EQB 50-170 nM
[5] = TmrAB, ATP, 45 °C (OF), CP^F 50 nM, TmrA^EQB 50-170 nM
[6] = listed as 4 °C: CP^F 50 nM without TmrAB

SMILES | Bound CP^F, fluorescence anisotropy [1, 2] | Bound CP^F, fluorescence anisotropy [1, 3] | Bound CP^F, fluorescence anisotropy [1, 4] | Bound CP^F, fluorescence anisotropy [1, 5] | Binding under nucleotide conditions [1] | Bound CP^F, fluorescence anisotropy [1, 6] | Bound C4F peptide, fluorescence anisotropy (TmrAB)
CC[C@H](C)[C@@H]1NC(=O)[C@H]([C@@H](C)O)NC(=O)[C@H](CC(C)C)NC(=O)[C@H](Cc2c[nH]c3ccccc23)NC(=O)[C@H](Cc2ccccc2)NC(=O)[C@H](CC(N)=O)NC(=O)[C@H](CCC(=O)O)NC(=O)[C@H](CC(C)C)NC(=O)[C@H](CS)NC(=O)[C@H](Cc2c[nH]cn2)NC(=O)[C@H](CO)NC(=O)[C@@H](Cc2ccc(O)cc2)NC(=O)CSC[C@@H](C(=O)NCC(=O)N[C@@H](CO)C(=O)NCCC(=O)NCCC(=O)N[C@@H](CCCNC(=N)N)C(=O)N[C@@H](CCCCNC(=O)c2ccc3c(c2)C(=O)OC32c3ccc(O)cc3Oc3cc(O)ccc32)C(N)=O)NC(=O)[C@H](CC(C)C)NC1=O [CP6] ({CH2CO}-[dY]SHCLENFWLTILCGS[βAla][βAla]RK(5FAM)-NH2; thioether N-14) | 0.143 | 0.132 | 0.129 | 0.050 | preferentially bind under conditions where IF TmrAB is exclusively populated | 0.019 | 0.124
CC(C)C[C@@H]1NC(=O)[C@H](Cc2ccccc2)NC(=O)CNC(=O)[C@H](CO)NC(=O)[C@H](Cc2ccccc2)NC(=O)[C@H](CC(=O)O)NC(=O)[C@@H]2CCCN2C(=O)[C@H]([C@@H](C)O)NC(=O)[C@@H](Cc2ccc(O)cc2)NC(=O)CSC[C@@H](C(=O)NCC(=O)N[C@@H](CO)C(=O)NCCC(=O)NCCC(=O)N[C@@H](CCCNC(=N)N)C(=O)N[C@@H](CCCCNC(=O)c2ccc3c(c2)C(=O)OC32c3ccc(O)cc3Oc3cc(O)ccc32)C(N)=O)NC(=O)[C@H](C)NC(=O)[C@H](CC(N)=O)NC(=O)[C@H](CCCNC(=N)N)NC(=O)[C@H](CC(C)C)NC(=O)[C@H](Cc2ccccc2)NC(=O)[C@H](C)NC1=O [CP12] ({CH2CO}-[dY]TPDFSGFLAFLRNACGS[βAla][βAla]RK(5FAM)-NH2; thioether N-16) | 0.127 | 0.130 | 0.122 | 0.069 | preferentially bind under conditions where IF TmrAB is exclusively populated | 0.023 | 0.128
CC[C@H](C)[C@@H]1NC(=O)[C@H](Cc2c[nH]c3ccccc23)NC(=O)[C@H](CC(N)=O)NC(=O)[C@H](C)NC(=O)[C@H](CO)NC(=O)[C@@H]2CCCN2C(=O)[C@H](CC(=O)O)NC(=O)[C@@H](Cc2ccc(O)cc2)NC(=O)CSC[C@@H](C(=O)NCC(=O)N[C@@H](CO)C(=O)NCCC(=O)NCCC(=O)N[C@@H](CCCNC(=N)N)C(=O)N[C@@H](CCCCNC(=O)c2ccc3c(c2)C(=O)OC32c3ccc(O)cc3Oc3cc(O)ccc32)C(N)=O)NC(=O)[C@H]([C@@H](C)O)NC(=O)[C@H](CC(C)C)NC(=O)[C@H](CC(C)C)NC(=O)[C@H](C(C)C)NC(=O)[C@H](CC(C)C)NC1=O [CP13] ({CH2CO}-[dY]DPSANWILVLLTCGS[βAla][βAla]RK(5FAM)-NH2; thioether N-14; C-terminus assumed) | 0.055 | 0.051 | 0.050 | 0.048 | bind in the absence and presence of ATP and ADP | 0.023 | 0.141
CC(C)[C@@H]1NC(=O)[C@H](Cc2ccccc2)NC(=O)[C@@H]2CCCN2C(=O)[C@H](CC(N)=O)NC(=O)[C@H](Cc2c[nH]c3ccccc23)NC(=O)[C@H](C(C)C)NC(=O)[C@H](Cc2ccc(O)cc2)NC(=O)[C@H](Cc2ccccc2)NC(=O)[C@@H](Cc2ccc(O)cc2)NC(=O)CSC[C@@H](C(=O)NCC(=O)N[C@@H](CO)C(=O)NCCC(=O)NCCC(=O)N[C@@H](CCCNC(=N)N)C(=O)N[C@@H](CCCCNC(=O)c2ccc3c(c2)C(=O)OC32c3ccc(O)cc3Oc3cc(O)ccc32)C(N)=O)NC(=O)[C@H](CCCCN)NC(=O)[C@H](Cc2ccccc2)NC1=O [CP14] ({CH2CO}-[dY]FYVWNPFVFKCGS[βAla][βAla]RK(5FAM)-NH2; thioether N-12; C-terminus assumed) | 0.134 | 0.132 | 0.131 | 0.127 | bind in the absence and presence of ATP and ADP | 0.023 | 0.136
